ChEMBL document CHEMBL5724914, “Linking interpersonal differences in gut microbiota composition and drug biotransformation activity” (2024)

Key:
[1] = (§1) The drug is tested on Z-022 corresponding to mouse gut metagenome with ENA study accession number: PRJEB37062 and ENA sample accession number: ERS12561821 for biotransformation under anaerobic condition. The drug concentrations were measured over 9 timepoints collected between 0 and 24 hours of incubation by liquid-chromatography-coupled mass spectrometry (LC–MS); details: 2 µM
[2] = as §1, with “WLS-170” for “Z-022”, “human” for “mouse”, “ERS12561762” for “ERS12561821”; details: 2 µM
[3] = human gut metagenome, 24 h, 2 µM
[4] = as §1, with “WLS-069” for “Z-022”, “human” for “mouse”, “ERS12561748” for “ERS12561821”; details: 2 µM
[5] = human gut metagenome, 24 h, 2 µM; remark: listed apart in the source
[6] = as §1, with “Z-027” for “Z-022”, “to” for “to mouse gut”, “ERS12561826” for “ERS12561821”; details: 2 µM
[7] = human gut metagenome, 24 h, 2 µM; remark: listed apart in the source
[8] = as §1, with “Z-023” for “Z-022”, “to” for “to mouse gut”, “ERS12561822” for “ERS12561821”; details: 2 µM
[9] = as §1, with “Z-001” for “Z-022”, “ERS12561801” for “ERS12561821”; details: 2 µM
[10] = as §1, with “WLS-052” for “Z-022”, “human” for “mouse”, “ERS12561747” for “ERS12561821”; details: 2 µM
[11] = human gut metagenome, 24 h, 2 µM; remark: listed apart in the source
[12] = human gut metagenome, 24 h, 2 µM; remark: listed apart in the source
[13] = human gut metagenome, 24 h, 2 µM; remark: listed apart in the source
[14] = human gut metagenome, 24 h, 2 µM; remark: listed apart in the source
[15] = human gut metagenome, 24 h, 2 µM; remark: listed apart in the source
[16] = human gut metagenome, 24 h, 2 µM; remark: listed apart in the source
[17] = as §1, with “Z-029” for “Z-022”, “rat” for “mouse”, “ERS12561828” for “ERS12561821”; details: 2 µM
[18] = as §1, with “Z-010” for “Z-022”, “to” for “to mouse gut”, “ERS12561810” for “ERS12561821”; details: 2 µM
[19] = as §1, with “WLS-038” for “Z-022”, “human” for “mouse”, “ERS12561745” for “ERS12561821”; details: 2 µM
[20] = as §1, with “Z-028” for “Z-022”, “ERS12561827” for “ERS12561821”; details: 2 µM
Note: call rule not given here.

Q: With `CN1[C@@H]2CC[C@H]1C[C@@H](OC(=O)c1c[nH]c3ccccc13)C2` [TROPISETRON] as the compound, how does the “Bacterial Biotransformation” value [1] read?
A: Its value is “Compound NOT metabolized”.

Q: And the “Bacterial Biotransformation” value [2]?
A: The value was “Compound NOT metabolized”.

Q: And the “Bacterial Biotransformation” value [3]?
A: Its value is “Compound NOT metabolized”.

Q: And the “Bacterial Biotransformation” value [4]?
A: The value was “Compound NOT metabolized”.

Q: What about the “Bacterial Biotransformation” value [5] of the same compound?
A: Its value is “Compound metabolized”.

Q: And the “Bacterial Biotransformation” value [6]?
A: Its value is “Compound NOT metabolized”.

Q: And the “Bacterial Biotransformation” value [7]?
A: Its value is “Compound NOT metabolized”.

Q: And the “Bacterial Biotransformation” value [8]?
A: Its value is “Compound NOT metabolized”.

Q: And the “Bacterial Biotransformation” value [9]?
A: The value was “Compound NOT metabolized”.

Q: What about the “Bacterial Biotransformation” value [10] of the same compound?
A: The value was “Compound NOT metabolized”.

Q: What about the “Bacterial Biotransformation” value [11] of the same compound?
A: The value was “Compound NOT metabolized”.

Q: And the “Bacterial Biotransformation” value [12]?
A: The value was “Compound NOT metabolized”.

Q: What about the “Bacterial Biotransformation” value [13] of the same compound?
A: Its value is “Compound NOT metabolized”.

Q: What about the “Bacterial Biotransformation” value [14] of the same compound?
A: The value was “Compound NOT metabolized”.

Q: What about the “Bacterial Biotransformation” value [15] of the same compound?
A: Its value is “Compound NOT metabolized”.

Q: What about the “Bacterial Biotransformation” value [16] of the same compound?
A: Its value is “Compound NOT metabolized”.

Q: And the “Bacterial Biotransformation” value [17]?
A: The value was “Compound NOT metabolized”.

Q: And the “Bacterial Biotransformation” value [18]?
A: The value was “Compound NOT metabolized”.

Q: And the “Bacterial Biotransformation” value [19]?
A: Its value is “Compound NOT metabolized”.

Q: And the “Bacterial Biotransformation” value [20]?
A: Its value is “Compound NOT metabolized”.
